Measured values: ChEMBL document CHEMBL5653615 (J Biol Chem, 2013)
Values belong to the compound of their own block, whether it stands above or below them.

Key:
[1] = biological target: Calcium/calmodulin-dependent protein kinase kinase 1 (Homo sapiens) (UniProt Q8N5S9); assay: Inhibition of human CAMKK1 at 500 nM by HotSpot assay relative to control
[2] = biological target: Casein kinase I isoform gamma-2 (Homo sapiens) (UniProt P78368); assay: Inhibition of human CK1g2 at 18.6 nM by HotSpot assay relative to control
Sequence of Casein kinase I isoform gamma-2 (Homo sapiens) (P78368 whole entry, looked up, canonical isoform): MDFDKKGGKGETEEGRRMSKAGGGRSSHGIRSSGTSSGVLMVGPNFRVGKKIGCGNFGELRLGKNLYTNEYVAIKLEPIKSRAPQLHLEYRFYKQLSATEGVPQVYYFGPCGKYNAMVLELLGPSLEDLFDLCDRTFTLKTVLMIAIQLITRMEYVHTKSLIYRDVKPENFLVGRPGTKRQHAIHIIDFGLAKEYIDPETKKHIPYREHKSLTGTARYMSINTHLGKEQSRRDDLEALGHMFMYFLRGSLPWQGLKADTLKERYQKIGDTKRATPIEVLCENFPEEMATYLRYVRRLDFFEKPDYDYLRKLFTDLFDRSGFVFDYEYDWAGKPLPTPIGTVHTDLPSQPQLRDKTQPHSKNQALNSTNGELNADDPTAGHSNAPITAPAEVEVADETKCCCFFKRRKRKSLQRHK

[3] = biological target: T1, Inhibitor of nuclear factor kappa-B kinase subunit alpha (Homo sapiens) (UniProt O15111); assay: Inhibition of human IKKa at 18.6 nM by HotSpot assay relative to control
T1 sequence (whole entry): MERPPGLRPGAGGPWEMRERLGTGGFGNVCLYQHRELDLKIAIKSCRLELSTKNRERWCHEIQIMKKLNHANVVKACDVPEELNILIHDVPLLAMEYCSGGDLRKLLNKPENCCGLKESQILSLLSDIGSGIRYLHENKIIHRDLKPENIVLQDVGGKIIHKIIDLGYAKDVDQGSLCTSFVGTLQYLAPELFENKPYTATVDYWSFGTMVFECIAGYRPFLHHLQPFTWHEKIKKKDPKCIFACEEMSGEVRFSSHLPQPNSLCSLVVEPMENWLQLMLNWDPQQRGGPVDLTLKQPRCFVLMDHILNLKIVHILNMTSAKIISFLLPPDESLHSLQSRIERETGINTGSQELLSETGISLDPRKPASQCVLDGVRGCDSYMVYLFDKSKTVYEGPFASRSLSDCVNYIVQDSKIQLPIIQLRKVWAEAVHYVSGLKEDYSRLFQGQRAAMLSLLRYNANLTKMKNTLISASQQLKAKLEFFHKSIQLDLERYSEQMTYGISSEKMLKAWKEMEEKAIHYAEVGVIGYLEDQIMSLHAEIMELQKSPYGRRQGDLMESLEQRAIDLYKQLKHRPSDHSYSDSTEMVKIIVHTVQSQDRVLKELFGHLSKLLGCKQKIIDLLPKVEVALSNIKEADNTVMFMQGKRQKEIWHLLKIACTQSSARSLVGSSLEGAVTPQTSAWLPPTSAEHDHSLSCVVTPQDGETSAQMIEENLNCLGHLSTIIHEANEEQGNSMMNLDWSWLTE

[4] = biological target: T2, Serine/threonine-protein kinase Sgk3 (Homo sapiens) (UniProt Q96BR1); assay: Inhibition of human SGKL at 18.6 nM by HotSpot assay relative to control
T2 sequence (whole entry): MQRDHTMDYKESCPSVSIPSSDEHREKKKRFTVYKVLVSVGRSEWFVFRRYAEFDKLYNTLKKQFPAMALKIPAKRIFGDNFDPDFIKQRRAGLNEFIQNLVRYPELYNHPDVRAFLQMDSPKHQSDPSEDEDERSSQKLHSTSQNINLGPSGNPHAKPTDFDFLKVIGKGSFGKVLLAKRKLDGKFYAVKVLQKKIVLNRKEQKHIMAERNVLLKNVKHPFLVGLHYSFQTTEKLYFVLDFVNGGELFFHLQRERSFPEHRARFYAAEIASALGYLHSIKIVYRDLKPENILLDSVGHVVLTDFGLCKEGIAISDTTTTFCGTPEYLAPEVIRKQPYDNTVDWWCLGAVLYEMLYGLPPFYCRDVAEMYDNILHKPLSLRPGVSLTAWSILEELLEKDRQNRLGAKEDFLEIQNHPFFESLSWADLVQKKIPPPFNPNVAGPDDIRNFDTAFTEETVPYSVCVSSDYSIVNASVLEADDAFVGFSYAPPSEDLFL

[5] = biological target: Serine/threonine-protein kinase SIK2 (Homo sapiens) (UniProt Q9H0K1); assay: Inhibition of human SIK2 at 1.82 nM by HotSpot assay relative to control
Sequence of Serine/threonine-protein kinase SIK2 (Homo sapiens) (Q9H0K1 whole entry, looked up): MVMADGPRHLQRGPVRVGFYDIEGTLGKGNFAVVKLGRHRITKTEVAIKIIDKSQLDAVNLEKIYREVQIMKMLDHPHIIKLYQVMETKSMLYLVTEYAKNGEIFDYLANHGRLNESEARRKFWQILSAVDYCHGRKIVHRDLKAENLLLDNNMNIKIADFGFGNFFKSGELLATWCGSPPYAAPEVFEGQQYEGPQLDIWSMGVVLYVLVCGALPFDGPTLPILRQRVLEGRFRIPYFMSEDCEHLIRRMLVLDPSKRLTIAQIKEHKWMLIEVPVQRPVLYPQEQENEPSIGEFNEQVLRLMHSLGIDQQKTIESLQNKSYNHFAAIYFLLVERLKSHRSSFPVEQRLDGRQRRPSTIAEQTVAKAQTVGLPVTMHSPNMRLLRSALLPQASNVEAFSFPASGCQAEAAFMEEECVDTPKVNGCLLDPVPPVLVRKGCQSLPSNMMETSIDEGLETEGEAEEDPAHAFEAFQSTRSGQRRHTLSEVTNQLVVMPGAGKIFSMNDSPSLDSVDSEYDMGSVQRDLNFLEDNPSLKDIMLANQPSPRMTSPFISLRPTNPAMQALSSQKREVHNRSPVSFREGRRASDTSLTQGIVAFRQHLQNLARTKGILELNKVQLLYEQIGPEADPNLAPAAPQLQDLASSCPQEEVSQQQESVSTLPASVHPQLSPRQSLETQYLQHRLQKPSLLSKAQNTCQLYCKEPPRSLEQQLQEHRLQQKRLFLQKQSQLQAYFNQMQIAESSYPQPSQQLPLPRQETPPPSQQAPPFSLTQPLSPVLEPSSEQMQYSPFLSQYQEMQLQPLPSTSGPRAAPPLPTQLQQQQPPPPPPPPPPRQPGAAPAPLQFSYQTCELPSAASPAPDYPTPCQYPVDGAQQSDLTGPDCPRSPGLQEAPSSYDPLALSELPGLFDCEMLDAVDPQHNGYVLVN

[6] = biological target: Serine/threonine-protein kinase N2 (Homo sapiens) (UniProt Q16513); assay: Inhibition of human PRK2 at 1.82 nM by HotSpot assay relative to control
Sequence of Serine/threonine-protein kinase N2 (Homo sapiens) (Q16513 whole entry, looked up): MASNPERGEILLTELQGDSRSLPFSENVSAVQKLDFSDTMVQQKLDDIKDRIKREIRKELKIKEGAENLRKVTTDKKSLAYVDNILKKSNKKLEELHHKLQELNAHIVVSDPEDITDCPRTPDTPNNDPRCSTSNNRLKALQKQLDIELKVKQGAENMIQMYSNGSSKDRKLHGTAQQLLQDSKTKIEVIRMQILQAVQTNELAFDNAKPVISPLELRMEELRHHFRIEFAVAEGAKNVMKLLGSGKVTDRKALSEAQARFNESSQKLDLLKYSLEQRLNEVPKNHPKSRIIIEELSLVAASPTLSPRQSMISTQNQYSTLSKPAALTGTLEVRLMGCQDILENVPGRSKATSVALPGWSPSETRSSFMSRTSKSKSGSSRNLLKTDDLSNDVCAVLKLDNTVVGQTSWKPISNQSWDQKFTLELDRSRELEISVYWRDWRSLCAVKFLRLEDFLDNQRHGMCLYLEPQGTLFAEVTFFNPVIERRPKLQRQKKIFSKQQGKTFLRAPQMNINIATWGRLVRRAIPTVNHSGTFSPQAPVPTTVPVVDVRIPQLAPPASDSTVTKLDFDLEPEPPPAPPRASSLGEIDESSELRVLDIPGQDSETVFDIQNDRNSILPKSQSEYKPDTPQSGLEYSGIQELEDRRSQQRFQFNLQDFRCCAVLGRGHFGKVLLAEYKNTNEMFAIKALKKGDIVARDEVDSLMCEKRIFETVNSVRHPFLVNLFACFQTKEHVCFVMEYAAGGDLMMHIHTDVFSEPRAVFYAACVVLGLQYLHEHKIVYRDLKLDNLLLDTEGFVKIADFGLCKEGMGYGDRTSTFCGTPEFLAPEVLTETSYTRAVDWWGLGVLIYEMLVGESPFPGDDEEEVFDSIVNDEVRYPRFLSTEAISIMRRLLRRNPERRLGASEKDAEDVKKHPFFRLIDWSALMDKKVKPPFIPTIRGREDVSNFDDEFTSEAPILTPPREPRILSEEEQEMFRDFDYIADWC

[7] = biological target: Death-associated protein kinase 1 (Homo sapiens) (UniProt P53355); assay: Inhibition of human DAPK1 at 1.82 nM by HotSpot assay relative to control
Sequence of Death-associated protein kinase 1 (Homo sapiens) (P53355 whole entry, looked up): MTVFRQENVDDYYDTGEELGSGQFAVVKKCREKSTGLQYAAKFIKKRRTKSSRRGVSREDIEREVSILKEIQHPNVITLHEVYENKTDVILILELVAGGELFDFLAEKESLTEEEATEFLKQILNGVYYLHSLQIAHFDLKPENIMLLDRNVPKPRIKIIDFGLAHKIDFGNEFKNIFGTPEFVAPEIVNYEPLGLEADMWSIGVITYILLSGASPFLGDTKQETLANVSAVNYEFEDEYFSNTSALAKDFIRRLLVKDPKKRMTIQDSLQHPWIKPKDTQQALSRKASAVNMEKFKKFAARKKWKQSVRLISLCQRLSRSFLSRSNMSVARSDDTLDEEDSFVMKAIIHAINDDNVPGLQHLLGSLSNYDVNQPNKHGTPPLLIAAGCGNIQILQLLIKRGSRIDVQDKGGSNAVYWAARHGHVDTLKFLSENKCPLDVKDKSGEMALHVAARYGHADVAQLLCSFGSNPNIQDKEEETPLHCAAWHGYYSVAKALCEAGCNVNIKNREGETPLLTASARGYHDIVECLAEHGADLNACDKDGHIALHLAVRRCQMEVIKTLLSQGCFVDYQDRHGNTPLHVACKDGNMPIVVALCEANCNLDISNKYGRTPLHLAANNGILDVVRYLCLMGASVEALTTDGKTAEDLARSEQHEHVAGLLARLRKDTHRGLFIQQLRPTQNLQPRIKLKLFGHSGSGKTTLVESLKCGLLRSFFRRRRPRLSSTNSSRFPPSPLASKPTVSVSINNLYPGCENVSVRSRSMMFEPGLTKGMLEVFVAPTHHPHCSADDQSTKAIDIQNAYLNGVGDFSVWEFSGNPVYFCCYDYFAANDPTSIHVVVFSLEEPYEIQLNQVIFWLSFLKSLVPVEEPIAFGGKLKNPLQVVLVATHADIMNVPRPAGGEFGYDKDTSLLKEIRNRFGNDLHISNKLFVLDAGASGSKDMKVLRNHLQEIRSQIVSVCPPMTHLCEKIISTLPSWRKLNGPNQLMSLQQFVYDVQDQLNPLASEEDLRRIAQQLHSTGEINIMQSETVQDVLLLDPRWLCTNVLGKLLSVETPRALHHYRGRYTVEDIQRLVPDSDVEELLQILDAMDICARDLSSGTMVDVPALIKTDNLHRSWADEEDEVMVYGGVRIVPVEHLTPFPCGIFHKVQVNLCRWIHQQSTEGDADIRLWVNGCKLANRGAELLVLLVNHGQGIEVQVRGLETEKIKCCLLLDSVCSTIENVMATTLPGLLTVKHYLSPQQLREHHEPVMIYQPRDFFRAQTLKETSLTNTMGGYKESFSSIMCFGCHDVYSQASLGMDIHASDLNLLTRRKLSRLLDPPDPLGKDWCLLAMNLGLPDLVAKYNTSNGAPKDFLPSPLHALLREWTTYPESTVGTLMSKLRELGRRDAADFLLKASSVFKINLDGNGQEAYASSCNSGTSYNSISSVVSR

[8] = biological target: T3, Serine/threonine-protein kinase Nek1 (Homo sapiens) (UniProt Q96PY6); assay: Inhibition of human NEK1 at 1.82 nM by HotSpot assay relative to control
T3 sequence (whole entry): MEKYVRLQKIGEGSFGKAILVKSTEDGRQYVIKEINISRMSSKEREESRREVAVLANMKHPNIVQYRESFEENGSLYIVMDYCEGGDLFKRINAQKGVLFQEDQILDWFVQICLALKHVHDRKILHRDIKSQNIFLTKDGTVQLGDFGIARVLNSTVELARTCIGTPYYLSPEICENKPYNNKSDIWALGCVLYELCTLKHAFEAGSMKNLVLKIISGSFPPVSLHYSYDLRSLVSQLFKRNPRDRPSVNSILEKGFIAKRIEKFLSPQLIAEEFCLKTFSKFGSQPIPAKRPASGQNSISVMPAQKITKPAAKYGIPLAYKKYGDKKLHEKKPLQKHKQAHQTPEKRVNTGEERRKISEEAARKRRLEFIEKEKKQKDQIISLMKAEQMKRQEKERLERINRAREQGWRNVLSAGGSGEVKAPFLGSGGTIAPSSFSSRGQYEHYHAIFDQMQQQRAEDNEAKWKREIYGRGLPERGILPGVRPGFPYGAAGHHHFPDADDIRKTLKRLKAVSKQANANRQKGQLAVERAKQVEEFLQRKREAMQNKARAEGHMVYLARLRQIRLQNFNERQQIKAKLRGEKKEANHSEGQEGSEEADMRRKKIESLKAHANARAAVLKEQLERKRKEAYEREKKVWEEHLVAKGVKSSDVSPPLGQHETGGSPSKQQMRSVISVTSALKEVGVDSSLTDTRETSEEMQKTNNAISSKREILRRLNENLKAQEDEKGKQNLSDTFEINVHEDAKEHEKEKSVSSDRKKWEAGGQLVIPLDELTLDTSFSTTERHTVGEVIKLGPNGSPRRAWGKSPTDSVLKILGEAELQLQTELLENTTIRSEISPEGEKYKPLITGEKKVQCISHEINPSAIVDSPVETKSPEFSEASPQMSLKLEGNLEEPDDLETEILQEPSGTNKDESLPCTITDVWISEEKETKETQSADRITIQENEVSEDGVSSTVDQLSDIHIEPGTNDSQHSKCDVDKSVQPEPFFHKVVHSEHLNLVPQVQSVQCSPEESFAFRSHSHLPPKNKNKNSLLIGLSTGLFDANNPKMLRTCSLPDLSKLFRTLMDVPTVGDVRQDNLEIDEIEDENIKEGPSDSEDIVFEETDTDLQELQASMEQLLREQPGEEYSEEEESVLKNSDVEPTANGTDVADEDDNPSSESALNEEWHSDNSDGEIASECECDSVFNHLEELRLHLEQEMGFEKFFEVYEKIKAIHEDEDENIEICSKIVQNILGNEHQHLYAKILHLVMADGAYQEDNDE

[9] = biological target: MAP kinase-activated protein kinase 3 (Homo sapiens) (UniProt Q16644); assay: Inhibition of human MAPKAPK3 at 1.82 nM by HotSpot assay relative to control
Sequence of MAP kinase-activated protein kinase 3 (Homo sapiens) (Q16644 whole entry, looked up): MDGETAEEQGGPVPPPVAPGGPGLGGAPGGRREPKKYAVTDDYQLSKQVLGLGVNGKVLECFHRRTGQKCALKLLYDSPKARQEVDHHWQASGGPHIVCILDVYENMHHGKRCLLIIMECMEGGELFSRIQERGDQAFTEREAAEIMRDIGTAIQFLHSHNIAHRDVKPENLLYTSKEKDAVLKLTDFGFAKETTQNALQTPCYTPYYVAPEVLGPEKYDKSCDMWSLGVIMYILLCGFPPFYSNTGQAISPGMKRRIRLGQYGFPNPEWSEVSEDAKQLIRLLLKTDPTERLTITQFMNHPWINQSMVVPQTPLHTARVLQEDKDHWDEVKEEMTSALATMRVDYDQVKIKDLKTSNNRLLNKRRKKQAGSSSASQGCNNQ

Sequence of Calcium/calmodulin-dependent protein kinase kinase 1 (Homo sapiens) (Q8N5S9 whole entry, looked up, canonical isoform): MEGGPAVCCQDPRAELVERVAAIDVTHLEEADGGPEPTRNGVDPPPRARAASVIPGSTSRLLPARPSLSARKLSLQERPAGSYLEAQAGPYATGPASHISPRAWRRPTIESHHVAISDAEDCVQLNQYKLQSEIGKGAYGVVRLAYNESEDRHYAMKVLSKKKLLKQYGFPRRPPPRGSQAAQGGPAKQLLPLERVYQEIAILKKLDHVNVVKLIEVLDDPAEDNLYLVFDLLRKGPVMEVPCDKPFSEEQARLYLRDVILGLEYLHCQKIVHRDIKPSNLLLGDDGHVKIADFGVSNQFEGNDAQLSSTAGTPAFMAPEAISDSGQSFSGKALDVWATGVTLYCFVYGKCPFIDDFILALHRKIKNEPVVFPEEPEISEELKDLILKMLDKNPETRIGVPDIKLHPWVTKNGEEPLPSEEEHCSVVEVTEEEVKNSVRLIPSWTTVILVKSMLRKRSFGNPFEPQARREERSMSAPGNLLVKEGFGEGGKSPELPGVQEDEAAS

SMILES: Oc1n[nH]c2nnc(-c3c(-c4ccccc4)nn4ccccc34)cc12
inhibition [1]: -9.31%

inhibition [2]: -6.22% | inhibition [3]: 5.65% | inhibition [4]: 0.11%
SMILES: C[C@]1(O)C[C@@H](c2nc(-c3ccc4ccc(-c5ccccc5)nc4c3)c3c(N)nccn32)C1

inhibition [5]: -6.97% | inhibition [6]: -0.34% | inhibition [8]: -2.03% | inhibition [9]: -1.61%
SMILES: C[C@@]1(C(=O)Nc2ccc(F)nc2)CCCN1c1nc(Nc2cc(C3CC3)n[nH]2)c2cccn2n1
inhibition [7]: 3.56%
